Reference: ChEMBL document CHEMBL4431352, “Structure-activity relationship of Garcinia xanthones analogues: Potent Hsp90 inhibitors with cytotoxicity and antiangiogenesis activity” (Bioorg Med Chem, 2016)

Key:
[1] = target: Heat shock protein HSP 90-alpha (Homo sapiens, UniProt P07900); test: Inhibition of 6x-His tagged human recombinant full length Hsp90alpha ATPase preincubated for 0.5 hrs followed by ATP addition measured after 30 mins by HTRF assay
MCF7 = test: Antiproliferative activity against human MCF7 cells assessed as growth inhibition by MTT assay; format: functional, cell-based
A549 = test: Antiproliferative activity against human A549 cells assessed as growth inhibition by MTT assay; format: functional, cell-based
SK-BR-3 = test: Antiproliferative activity against human SK-BR-3 cells assessed as growth inhibition by MTT assay; format: functional, cell-based
HT-29 = test: Antiproliferative activity against human HT-29 cells assessed as growth inhibition by MTT assay; format: functional, cell-based
PC-3 = test: Antiproliferative activity against human PC3 cells assessed as growth inhibition by MTT assay; format: functional, cell-based
HepG2 = test: Antiproliferative activity against human HepG2 cells assessed as growth inhibition by MTT assay; format: functional, cell-based

SMILES	IC50 [1]	other results
CCOC(=O)COc1cccc2c1C(=O)C1=CC3CC4C(C)(C)OC(CC=C(C)C)(C3=O)C14O2 (configuration not stated)	89.8 µM	–
CC(C)=CCC[C@]1(C)C=Cc2c(O)c3c(c(CC=C(C)C)c2O1)O[C@]12C(=C[C@@H]4C[C@H]1C(C)(C)O[C@@]2(C/C=C(/C)C(=O)O)C4=O)C3=O [GAMBOGIC ACID]	22 µM	IC50 (MCF7): 1.25 µM; IC50 (A549): 1.2 µM; IC50 (SK-BR-3): 0.89 µM; IC50 (HT-29): 2.37 µM; IC50 (PC-3): 1.19 µM; IC50 (HepG2): 2.19 µM
C/C(=C\CC12OC(C)(C)C3CC(C=C4C(=O)c5c(O)cccc5OC431)C2=O)CO (configuration not stated)	27.3 µM	–
C/C(=C\CC12OCC3CC(C1=O)C1OC14C(=O)c1c(O)cccc1OC324)CC=O (configuration not stated)	36.6 µM	–
COc1cccc2c1C(=O)C1=CC3CC4C(C)(C)OC(CC=C(C)C)(C3=O)C14O2 (configuration not stated)	76.8 µM	–
CC(C)=CCC12OCC3CC(C=C4C(=O)c5ccccc5OC431)C2=O (configuration not stated)	35.2 µM	–
CC(C)=CCC12OC(C)(C)C3CC(C=C4C(=O)c5ccccc5OC431)C2=O (configuration not stated)	23.9 µM	–

Continued, in another order:

IC50 [1]	SMILES	other results
15.5 µM	CC(C)=CCC12OC(C)(C)C3CC(C=C4C(=O)c5c(O)cccc5OC431)C2=O (configuration not stated)	–
22.6 µM	C/C(=C\CC12OC(C)(C)C3CC(C=C4C(=O)c5c(O)cccc5OC431)C2=O)CC=O (configuration not stated)	–
14.3 µM	CC(C)=CCC12OCC3CC(C=C4C(=O)c5c(O)cccc5OC431)C2=O (configuration not stated)	–
28 µM	C=CCC12OCC3CC(C=C4C(=O)c5ccccc5OC431)C2=O (configuration not stated)	–
